Data on 121 molecules can be found in a melting point compilation (Tetko et al.).

The molecule `O=[N+]([O-])c1ccc(NC2CCCC2)cc1` showed a melting point of 86 to 88 °C.

In the case of `Clc1nnc(Cl)c(Cl)n1`, the melting point was in the range of 56 to 58 °C. To `NC(=O)C1CC(C(=O)O)=NN1c1ccc(F)cc1` (stereo unspecified) belongs 219 to 221 °C; to `COc1ccc(Cn2ncc(C)c2N)cc1OC`, 98 to 100 °C.

`O=C(O)c1c[nH]c(C(=O)N2CCCC2)c1` displayed a melting point of 264 to 266 °C.

The molecule `O=C1OC(CCl)CN1c1ccccc1` (stereo unspecified) came in with a melting point of 103 to 105 °C. Under `Nc1cc(Cl)c(OC(F)F)c(Cl)c1` stands 82 to 84 °C; under `Cc1nc(Cl)c(Cl)nc1C`, 77 to 79 °C; under `CC1CCC(C(C)C)C(NC(=O)c2ccnc(F)c2)C1` (stereo unspecified), 79 to 81 °C. To `CC1CC(N)=NO1` (stereo unspecified) belongs 95 to 97 °C; to `COc1ccc(-c2n[nH]c(=O)c3ccccc23)cc1`, 238 to 240 °C. `O=C(O)c1cnn(CCCl)c1` showed a melting point of 147 to 149 °C.

For `O=C(O)c1csc(-c2cccc3ccccc23)n1`, the melting point was 144 to 146 °C. With `O=C(NC(C(=O)O)c1ccccc1)OCC1c2ccccc2-c2ccccc21` (stereo unspecified), the melting point lay within 170 to 172 °C.

As for `Cc1nnc(Cl)c2ccccc12`, the melting point fell in the range of 123 to 125 °C.

For `COc1ccc2[nH]cc(C3CCNCC3)c2c1`, the melting point was 169 to 171 °C. Under `O=c1[nH]c(-c2ccc3c(c2)OCCO3)cs1` stands 229 to 231 °C; under `CCOc1ccc(C2(C)NC(=O)NC2=O)cc1` (stereo unspecified), 190 to 192 °C. Under `O=C1CSC(c2ccc(F)cc2)N1C1CC1` (stereo unspecified) stands 225 to 227 °C; under `O=C(O)c1ccc(F)c(S(=O)(=O)N2CCCCC2)c1`, 203 to 205 °C; under `O=C(O)C1CC1c1ccc(F)c(F)c1` (stereo unspecified), 89 to 91 °C. Under `Cc1ccc(-c2n[nH]c(=O)c3ccccc23)cc1C` stands 252 to 254 °C; under `O=[N+]([O-])c1ccccc1OCC1CO1` (stereo unspecified), 52 to 54 °C; under `O=C(O)Cn1nnc(-c2ccccc2)n1`, 180 to 182 °C. `Nc1cc(Cl)c(-c2cc(Cl)c(N)cc2Cl)cc1Cl` gave a melting point of 135 to 140 °C. Under `CC(C)Oc1ncccc1O` stands 57 to 59 °C; under `O=C(O)c1cn(-c2ccccc2)nc1-c1ccccc1`, 202 to 204 °C; under `O=C(O)c1cccnc1SCc1ccc(Br)cc1`, 236 to 238 °C. Consider `O=Cc1csc(-c2ncccn2)n1`, for which the melting point fell in the range of 197 to 199 °C. Under `Cc1nn(-c2cccc(C(F)(F)F)c2)c2sc(C(=O)O)cc12` stands 271 to 273 °C; under `O=C1Nc2cc(F)cc(F)c2C1=O`, 229 to 231 °C; under `CN(C)S(=O)(=O)c1cc(C(=O)O)n(C)c1`, 159 to 161 °C.

As for `S=C=Nc1ccc2ccccc2c1`, the melting point was 59 to 61 °C. As for `NC(=O)Nc1ccccc1[N+](=O)[O-]`, the melting point is 186 to 188 °C. `CC1(C)NC(=O)N(CCC(=O)NN)C1=O` displayed a melting point of 176 to 178 °C. The molecule `CNCCCc1cc(-c2ccc(F)cc2)n[nH]1` gave a melting point of 104 to 106 °C. Under `CCCC1NC(=O)NC1=O` (stereo unspecified) stands 132 to 136 °C; under `O=Cc1c(Cl)nc2ccccn2c1=O`, 213 to 215 °C. As to `Nc1ccc(-c2ncco2)cc1`, the melting point lay in the range of 104 to 106 °C.

`O=[N+]([O-])c1cc(Br)ccc1S` showed a melting point of 123 to 125 °C. Under `O=C1COc2ccc(C(=O)O)cc2N1` stands 228 to 230 °C; under `Nc1nnc(Cc2ccc(Cl)cc2)o1`, 167 to 169 °C; under `Nc1ccc2c(c1)N(CCO)CC2`, 59 to 61 °C. Take `O=C(O)c1ccccc1SCc1ccc(Br)cc1`: the melting point was in the range of 233 to 235 °C. As to `CC(C)[C@H](NC(=O)c1c(F)cccc1F)C(=O)O`, the melting point was 172 to 174 °C. On to `COc1ccc(CNc2ccncn2)cc1OC`, for which the melting point was 124 to 126 °C.

`Oc1ccc(-c2cscn2)cc1` registered a melting point of 146 to 148 °C. To `NS(=O)(=O)c1cccc(F)c1` belongs 129 to 131 °C; to `O=C(O)c1cccnc1SC(F)(F)F`, 162 to 164 °C; to `CCc1c(C(=O)CCl)[nH]c(C)c1C(C)=O`, 143 to 145 °C. With `Nc1cccc(-n2c(O)c(O)n(C3CC3)c2=O)c1`, the melting point fell in the range of 164 to 166 °C.

Regarding `CCOc1cc2nccc(Cl)c2cc1OCC`, the melting point fell in the range of 72 to 74 °C. Molecule `Cn1ccnc1SCC(=O)Nc1ccc(C(=O)O)cc1` showed a melting point of 171 to 173 °C. In turn, `O=C1C2C3CC4C5C3C1C5C1(OCCO1)C42` (stereo unspecified) showed a melting point of 73 to 75 °C. Under `OC(c1ccccc1)(c1ccc(F)cc1)c1ccc(F)cc1` stands 86 to 88 °C; under `CC1(c2ccccc2)CC(=O)NC1=O` (stereo unspecified), 79 to 81 °C; under `CC(C)c1ccc(O)c(C(=O)O)c1`, 123 to 125 °C. Under `Cc1ccc2ncc(C(=O)O)c(=O)n2c1` stands 259 to 261 °C; under `COc1ccc(C(N)=NO)c(OC)c1`, 129 to 131 °C; under `O=C(Nc1cccc(S(=O)(=O)C2CCCC2)c1)OCC(F)(F)F`, 104 to 106 °C. `O=S(=O)(Cl)c1c[nH]cn1` returned a melting point of 164 to 166 °C. In the case of `Nc1ccc(-c2cn3ccccc3n2)cc1`, the melting point was in the range of 118 to 120 °C. Under `CC(=O)Nc1ccc(N)nc1` stands 166 to 168 °C; under `O=C(c1[nH]nc2ccccc12)N1CCNCC1`, 179 to 181 °C. The molecule `O=c1[nH]c2ccccc2n2cncc12` displayed a melting point of 349 to 351 °C.

`ON=C1CCC1` gave a melting point of 82 to 84 °C. In turn, `Cc1cccc(-n2c(C)cc(C(=O)O)c2C)c1` registered a melting point of 194 to 196 °C. To `COC(=O)c1cc(O)c(C)c(F)c1` belongs 129 to 131 °C; to `NNC(=O)c1cccc2ncccc12`, 130 to 132 °C; to `NC(=S)NC1CCOCC1`, 228 to 230 °C.

In the case of `O=C(O)CSCc1cccc(Br)c1`, the melting point lay within 70 to 80 °C. Take `Brc1cnc2nc3ccccc3n2c1`: the melting point was 269 to 271 °C. Regarding `COc1ccc(C)cc1NCCCC(=O)O`, the melting point was 99 to 101 °C. Under `CCN(CC)S(=O)(=O)c1cccc(-c2nnc(S)o2)c1` stands 95 to 101 °C. As to `COc1cc(C=C2CC(C(C)(C)C)Cc3c2nc2ccccc2c3C(=O)O)cc(OC)c1OC` (stereo unspecified), the melting point fell in the range of 220 to 222 °C. `COc1ccc(N)cc1OCC(F)(F)F` displayed a melting point of 154 to 156 °C. `NC1CCCS(=O)(=O)c2ccccc21` (stereo unspecified) showed a melting point of 115 to 117 °C. Under `Nc1ncn(C2CCCCC2)n1` stands 129 to 131 °C. Molecule `Cc1cccc(NC(=O)[C@@H]2CCCN2)n1` registered a melting point of 62 to 64 °C.

`Clc1cc(Cl)cc(-c2nnc3ccc(Cl)nn23)c1` registered a melting point of 209 to 211 °C. In the case of `O=C(CCCCl)c1cc(F)ccc1O`, the melting point was 66 to 68 °C. To `COC(=O)c1c(C(=O)OC)c(-c2cccc(N)c2)n2c1CCC2` belongs 166 to 168 °C; to `NNC(=O)CCOc1ccccc1`, 69 to 71 °C. On to `CCOc1ncccc1C(=O)O`, for which the melting point fell in the range of 90 to 92 °C. For `NC(=O)NCc1ccccn1`, the melting point fell in the range of 139 to 141 °C. Molecule `O=C(O)CCCNC(=O)c1ccccc1` gave a melting point of 87 to 89 °C.

For `CC1CCN(C(=O)c2ccc(Cl)nc2)CC1`, the melting point was 69 to 71 °C. Under `CCSc1ccc(C(=O)O)cn1` stands 123 to 125 °C.

Turning to `CC(C)(C)OC(=O)NCCc1nc(N)no1`, the melting point was 116 to 118 °C. As to `CC(COc1ccccc1)C(=O)O` (stereo unspecified), the melting point lay within 84 to 86 °C. Consider `Nc1cnc(Cl)cc1C(=O)O`, for which the melting point was 289 to 291 °C.

The molecule `Nc1cc([N+](=O)[O-])ccc1C(=O)O` yielded a melting point of 257 to 259 °C. To `CC(C)Oc1cccc(C(O)CN)c1` (stereo unspecified) belongs 52 to 54 °C; to `Cc1ccc2cc(CCl)c(Cl)nc2c1`, 132 to 134 °C. `Cc1c(C(=O)O)cc(Br)cc1S(=O)(=O)Cl` showed a melting point of 139 to 141 °C.

Molecule `CCOc1cc(C=O)ccc1OCc1c(F)cccc1Cl` gave a melting point of 111 to 113 °C. Under `N#Cc1ccc(-c2ccccc2)[nH]c1=O` stands 297 to 299 °C; under `Cc1cc(NC(=O)c2ccc(F)cc2Cl)sc1C(=O)O`, 207 to 209 °C.

Turning to `Cc1nn(C)c(C)c1O`, the melting point was in the range of 186 to 188 °C. Under `CC(C)(C)OC(=O)N1CCC(N2CC(O)C2)CC1` stands 91 to 93 °C; under `NCc1cccc(NC(=O)C2CCCC2)c1`, 86 to 88 °C. Under `Cc1cc(C)cc(NC(=O)CCl)c1` stands 141 to 143 °C. To `N#Cc1ccc(C(=O)NN)cc1` belongs 195 to 197 °C; to `Brc1ccc(-n2cccn2)cc1`, 69 to 71 °C. `C=CCN(c1ccc(OC)cc1)S(=O)(=O)c1ccc(Cl)c(C(=O)O)c1` gave a melting point of 109 to 111 °C.

For the molecule `CC(Cl)C(=O)NC1CCCCC1` (stereo unspecified), the melting point was 98 to 100 °C. `O=C(O)CCNS(=O)(=O)c1cccnc1Cl` gave a melting point of 174 to 176 °C.

As to `Cc1cc(C)n2ncc(C(=O)NCC(=O)O)c2n1`, the melting point lay within 244 to 246 °C.

`Cc1nc(S)nc(C)c1CCC(=O)O` came in with a melting point of 154 to 156 °C. On to `CCN(CC)S(=O)(=O)c1cc(C(=O)O)ccc1Cl`, for which the melting point lay within 118 to 120 °C. To `CC(Cl)C(=O)NC1CCCC(C)C1C` (stereo unspecified) belongs 163 to 165 °C; to `Nc1cccc(CS(=O)C2CCOCC2)c1` (stereo unspecified), 125 to 127 °C; to `Cc1c(F)cc(C#N)cc1[N+](=O)[O-]`, 75 to 77 °C. Under `O=[N+]([O-])c1cc(Cl)ccc1I` stands 63 to 65 °C; under `CC(C)Nc1ccc(C#N)cn1`, 99 to 101 °C; under `CC(C)(C)c1ccc(=O)[nH]n1`, 163 to 165 °C. Under `CCOc1ccccc1N1CC(C(=O)O)CC1=O` (stereo unspecified) stands 104 to 108 °C; under `Nc1ccccc1NC(=O)c1ccccc1I`, 189 to 191 °C.

The molecule `O=C1CCOc2c(Cl)cc(Cl)cc21` displayed a melting point of 86 to 88 °C.

The molecule `Cc1c(N)cccc1S(N)(=O)=O` gave a melting point of 212 to 214 °C. To `N#Cc1ccc(C(=O)N2CCOCC2)cc1` belongs 144 to 146 °C.

By melting point is commonly meant the temperature of the solid-liquid transition.
